Common to all, as to assay: growth of human tumour cells (NCI), 48 h
In experiment [1] the test system is MOLT-4 leukemia.
In experiment [2] the test system is UACC-62 melanoma.
For experiment [3], the system named is RPMI-8226 leukemia.
Experiment [4] relates to K-562 leukemia.
Experiment [5] concerns NCI-H226 lung.
The test system of experiment [6] is HCT-15 colon.
In experiment [7] the test system is HOP-62 NSCLC.
Experiment [8] has as its system SK-MEL-2 melanoma.
The subject of experiment [9] is HCT-116 colon.
The subject of experiment [10] is NCI-H23 lung.

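1) Cells in 96-well plates. 2) Compound, 48 h, 5 concentrations. 3) Linear interpolation between surrounding doses. 4) Unreached endpoint = highest concentration. The concentration for 50% growth inhibition is given as GI50. TGI: concentration producing complete growth inhibition.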 Some results are limits rather than exact numbers.

Consider `O=C1C=CC(=O)c2c(O)c(Br)c(Br)c(O)c21`, for which the TGI came to 0.549 µM in experiment [1]; 26.1 µM in experiment [2]; 3.42 µM in [3]; 1.75 µM in [4]; 55.6 µM in experiment [5]; 4.83 µM in [6]. For the same compound, the TGI in [7] is 24.8 µM; in [8], 46.6 µM; in experiment [9] it was 8.57 µM; in [10], 13.3 µM.
With `COc1cc(C(=O)CC2OC(=O)C(Cl)=C2Cl)ccc1Cl` (stereo not given), the TGI in experiment [1], in experiment [2], in experiment [3], in experiment [4], in [5] and in [6] was above 100 µM in each case. Further, the TGI in [7], in [8], in experiment [9] and in [10] was above 100 µM each time.
For `O=C1c2ccccc2C(=O)c2c(Nc3cc4c5c(ccc6c7ccc8c9c(cc(Nc%10cccc%11c%10C(=O)c%10ccccc%10C%11=O)c(c3c56)c97)-c3ccccc3C8=O)C(=O)c3ccccc3-4)cccc21`, the TGI in experiment [1], in experiment [2], in [3], in experiment [4], in experiment [5] and in experiment [6] was above 100 µM each time. The TGI in experiment [7] is 44.6 µM; in experiment [8], above 100 µM; in experiment [9], above 100 µM; in [10] it was above 100 µM.
Consider `CO/N=C\c1cc(O)c(O)c(/C=N/OC)c1`, for which the TGI was above 100 µM in experiment [1]; above 100 µM in experiment [2]; above 100 µM in experiment [3]; above 100 µM in [4]; 88.9 µM in experiment [5]; above 100 µM in experiment [6]. For the same compound, the TGI is above 100 µM in experiment [7], above 100 µM in experiment [8], above 100 µM in experiment [9] and 99.4 µM in experiment [10].
As for `Cc1nc2[nH]ncn2c(=O)c1CCCl`, the TGI in experiment [1], in experiment [2], in experiment [3], in experiment [4], in experiment [5] and in experiment [6] was above 10 µM each time. In addition, the TGI in experiment [7], in experiment [8], in experiment [9] and in experiment [10] was above 10 µM throughout.
Turning to `O=C(c1ccccc1)c1nc2ccc(Cl)cc2c2c1CCCO2`, the TGI in experiment [1], in experiment [2], in experiment [3], in experiment [4], in experiment [5] and in [6] was above 100 µM throughout. Besides, the TGI in experiment [7], in experiment [8], in [9] and in experiment [10] was above 100 µM each time.
Regarding `N#C/C(=C\c1ccc(Br)cc1)n1nnc2cc(Cl)c(Cl)cc21`, the GI50 was 2.51 µM in experiment [1]; 1.68 µM in experiment [2]; 1.42 µM in experiment [3]; 2.31 µM in [4]; 3.59 µM in experiment [5]; 1.67 µM in experiment [6]. The GI50 is 3.26 µM in [7], 2.08 µM in experiment [8], 1.43 µM in experiment [9] and 2.89 µM in [10]. The TGI is above 100 µM in [1]; 3.63 µM in [2]; 4.38 µM in experiment [3]; above 100 µM in experiment [4]; above 100 µM in experiment [5]; 5.17 µM in [6]. Also, the TGI in experiment [7] is above 100 µM; in experiment [8], 4.86 µM; in experiment [9], 3.08 µM; in experiment [10], above 100 µM.
As to `Clc1ccc(C[P+]2(c3ccccc3)CCCCC2)cc1`, the TGI in experiment [1], in experiment [2], in experiment [3], in [4], in experiment [5] and in [6] was above 100 µM in each case. Further, the TGI in experiment [7], in experiment [8], in [9] and in experiment [10] was above 100 µM each time.
In the case of `C[C@]12CC[C@@H]3c4ccc(O)cc4CC[C@H]3[C@@H]1CC[C@@H]2OC(=O)CCc1ccccc1`, the TGI in [1] is 40.3 µM; in experiment [2], 28.8 µM; in experiment [3], 35.6 µM; in [4] it was 33.9 µM; in experiment [5], 36.8 µM; in [6], 33 µM. Besides, the TGI came out at 55.9 µM in experiment [7], 30.8 µM in experiment [8], 48.4 µM in [9] and 34.6 µM in experiment [10].
Take `O=C(c1ccccc1)C1C(c2ccccc2)N1S(=O)(=O)c1ccccc1` (stereo not given): the TGI in experiment [1], in experiment [2], in [3], in experiment [4], in experiment [5] and in [6] was above 100 µM throughout. In addition, the TGI in [7], in [8], in [9] and in experiment [10] was above 100 µM in each case.
In the case of `Cc1ccc(C2COc3cc(O)c(O)cc3C2)cc1` (stereo not given), the TGI in experiment [1] came to 18.6 µM; in experiment [2], 77.2 µM; in [3], 37.9 µM; in [4], 42.8 µM; in experiment [5] it was 235 µM; in experiment [6], 31.8 µM. The TGI stood at 266 µM in experiment [7], 57.3 µM in [8], 23.7 µM in experiment [9] and 65.6 µM in experiment [10].
As for `CC1(C)N=C(N)N=C(N)N1c1cccc(C(=O)Nc2ccc(S(=O)(=O)F)cc2)c1`, the TGI in [1], in [2], in experiment [3], in experiment [4], in experiment [5] and in experiment [6] was above 100 µM throughout. Further, the TGI in [7], in experiment [8], in experiment [9] and in [10] was above 100 µM in each case.

For the origin of these results see PubChem BioAssay (NCI).
